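Values below derive from 48-hour exposures of cells grown in 96-well plates, with endpoints linearly interpolated between the two concentrations bracketing the appropriate inhibition level. GI50 marks 50% less growth.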 The source made the active and inactive calls. Cut-off read from the data, not from the text of the source: active = GI50 up to about 1.1 µM and inactive = higher.
Columns and labels:
Assay in all cases: NCI-60 cell line screen, 48 h
[1] = system: 786-0
[2] = system: A498
[3] = system: A549
[4] = system: ACHN
[5] = system: BT-549
[6] = system: CAKI-1
[7] = system: CCRF-CEM
[8] = system: COLO 205
[9] = system: DU-145
[10] = system: EKVX
[11] = system: HCC 2998
[12] = system: HCT-116
[13] = system: HCT-15
[14] = system: HL-60
[15] = system: HOP-62
[16] = system: HOP-92
[17] = system: HT-29
[18] = system: Hs-578T
[19] = system: IGROV-1
[20] = system: K562
[21] = system: KM12
[22] = system: LOX IMVI
[23] = system: M14
[24] = system: MCF7
[25] = system: MDA-MB-231
[26] = system: MDA-MB-435
[27] = system: MDA-N
[28] = system: MOLT-4
[29] = system: Malme-3M
[30] = system: NCI-H226
[31] = system: NCI-H23
[32] = system: NCI-H460
[33] = system: NCI-H522
[34] = system: NCI/ADR-RES
[35] = system: OVCAR-3
[36] = system: OVCAR-4
[37] = system: OVCAR-5
[38] = system: OVCAR-8
[39] = system: PC-3
[40] = system: RPMI-8226
[41] = system: RXF 393
[42] = system: SF-268
[43] = system: SF-295
[44] = system: SF-539
[45] = system: SK-MEL-28
[46] = system: SK-MEL-2
[47] = system: SK-MEL-5
[48] = system: SK-OV-3
[49] = system: SN12C
[50] = system: SNB-19
[51] = system: SNB-75
[52] = system: SR
[53] = system: SW-620
[54] = system: T47D
[55] = system: TK-10
[56] = system: U-251
[57] = system: UACC-257
[58] = system: UACC-62
[59] = system: UO-31

## c1ccc2sc(C3(N4CCCCC4)CCCCCC3)cc2c1
[1]
  GI50: 20.9 µM (inactive)
[2]
  GI50: 15.2 µM (inactive)
[3]
  GI50: 30 µM (inactive)
[4]
  GI50: 17.6 µM (inactive)
[5]
  GI50: 24.7 µM (inactive)
[6]
  GI50: 26.7 µM (inactive)
[7]
  GI50: 13.2 µM (inactive)
[8]
  GI50: 16.6 µM (inactive)
[9]
  GI50: 31.1 µM (inactive)
[10]
  GI50: 22.9 µM (inactive)
[11]
  GI50: 13.4 µM (inactive)
[12]
  GI50: 15.5 µM (inactive)
[13]
  GI50: 17.3 µM
[14]
  GI50: 2.1 µM (inactive)
[15]
  GI50: 28.8 µM (inactive)
[16]
  GI50: 22.1 µM (inactive)
[17]
  GI50: 14.8 µM (inactive)
[18]
  GI50: 18.9 µM (inactive)
[19]
  GI50: 23.4 µM (inactive)
[20]
  GI50: 16.4 µM (inactive)
[21]
  GI50: 17.1 µM (inactive)
[22]
  GI50: 18.5 µM (inactive)
[23]
  GI50: 27 µM (inactive)
[24]
  GI50: 17.8 µM (inactive)
[25]
  GI50: 23 µM (inactive)
[26]
  GI50: 22.3 µM (inactive)
[27]
  GI50: 34.9 µM (inactive)
[28]
  GI50: 15.2 µM (inactive)
[29]
  GI50: 24 µM (inactive)
[30]
  GI50: 17.3 µM (inactive)
[31]
  GI50: 20.5 µM (inactive)
[32]
  GI50: 17.1 µM (inactive)
[33]
  GI50: 17.5 µM (inactive)
[34]
  GI50: 20.5 µM (inactive)
[35]
  GI50: 19.4 µM (inactive)
[36]
  GI50: 25.8 µM (inactive)
[37]
  GI50: 18.8 µM (inactive)
[38]
  GI50: 26.1 µM (inactive)
[39]
  GI50: 15.5 µM (inactive)
[40]
  GI50: 14.2 µM (inactive)
[41]
  GI50: 14.5 µM (inactive)
[42]
  GI50: 25.4 µM (inactive)
[43]
  GI50: 22.4 µM (inactive)
[44]
  GI50: 21 µM (inactive)
[45]
  GI50: 4.62 µM (inactive)
[46]
  GI50: 25.9 µM (inactive)
[47]
  GI50: 16.6 µM (inactive)
[48]
  GI50: 25.3 µM (inactive)
[49]
  GI50: 20.4 µM (inactive)
[50]
  GI50: 20.8 µM (inactive)
[51]
  GI50: 15.2 µM (inactive)
[52]
  GI50: 19.1 µM (inactive)
[53]
  GI50: 12 µM (inactive)
[54]
  GI50: 14.5 µM (inactive)
[55]
  GI50: 25.1 µM (inactive)
[56]
  GI50: 17.3 µM (inactive)
[57]
  GI50: 18.8 µM (inactive)
[58]
  GI50: 25.4 µM (inactive)
[59]
  GI50: 25.1 µM (inactive)

## Cc1cc(SCC(=O)c2ccc(Br)cc2)cc(C)[o+]1
[1]
  GI50: 33.5 µM (inactive)
[2]
  GI50: 27.3 µM (inactive)
[3]
  GI50: 31.7 µM (inactive)
[4]
  GI50: 31.2 µM (inactive)
[5]
  GI50: 39.7 µM (inactive)
[6]
  GI50: 35.9 µM (inactive)
[7]
  GI50: 16 µM (inactive)
[8]
  GI50: 31.9 µM (inactive)
[9]
  GI50: 29.5 µM (inactive)
[10]
  GI50: 12.4 µM (inactive)
[11]
  GI50: 25.2 µM (inactive)
[12]
  GI50: 23.8 µM (inactive)
[13]
  GI50: 32.1 µM
[14]
  GI50: 13.5 µM (inactive)
[15]
  GI50: 36.8 µM (inactive)
[16]
  GI50: 22.7 µM (inactive)
[17]
  GI50: 25.1 µM (inactive)
[18]
  GI50: 47.6 µM (inactive)
[19]
  GI50: 37.4 µM (inactive)
[20]
  GI50: 24.9 µM (inactive)
[21]
  GI50: 24.4 µM (inactive)
[22]
  GI50: 32.1 µM (inactive)
[23]
  GI50: 26.5 µM (inactive)
[24]
  GI50: 19.3 µM (inactive)
[25]
  GI50: 36.6 µM (inactive)
[26]
  GI50: 21.3 µM (inactive)
[27]
  GI50: 30.6 µM (inactive)
[28]
  GI50: 17.4 µM (inactive)
[29]
  GI50: 30.9 µM (inactive)
[30]
  GI50: 31.3 µM (inactive)
[31]
  GI50: 31.6 µM (inactive)
[32]
  GI50: 25.5 µM (inactive)
[33]
  GI50: 21.6 µM (inactive)
[34]
  GI50: 29.8 µM (inactive)
[35]
  GI50: 21.4 µM (inactive)
[36]
  GI50: 24.9 µM (inactive)
[37]
  GI50: 20.6 µM (inactive)
[38]
  GI50: 32.4 µM (inactive)
[39]
  GI50: 29.4 µM (inactive)
[40]
  GI50: 21.7 µM (inactive)
[41]
  GI50: 28.6 µM (inactive)
[42]
  GI50: 47.6 µM (inactive)
[43]
  GI50: 26.6 µM (inactive)
[44]
  GI50: 23 µM (inactive)
[45]
  GI50: 13.8 µM (inactive)
[46]
  GI50: 30.8 µM (inactive)
[47]
  GI50: 18 µM (inactive)
[48]
  GI50: 60 µM (inactive)
[49]
  GI50: 39 µM (inactive)
[50]
  GI50: 36.7 µM (inactive)
[51]
  GI50: 20.3 µM (inactive)
[52]
  GI50: 22.8 µM (inactive)
[53]
  GI50: 34 µM (inactive)
[54]
  GI50: 19.8 µM (inactive)
[55]
  GI50: 35.1 µM (inactive)
[56]
  GI50: 30.1 µM (inactive)
[57]
  GI50: 25.1 µM (inactive)
[58]
  GI50: 31.4 µM (inactive)
[59]
  GI50: 26.6 µM (inactive)
